The record followed here is ChEMBL document CHEMBL4706535, “The development of Coronavirus 3C-Like protease (3CL) inhibitors from 2010 to 2020” (Eur J Med Chem, 2020).

Assay [1] can be described thus: Inhibition of SARS-CoV-2 3c-like protease. More on the design: species or system Severe acute respiratory syndrome coronavirus 2.
The nature of assay [2]: Inhibition of SARS-CoV 3C-like protease (9970 to 10887 residues) expressed in Escherichia coli BL21(DE3) CodonPlus-RIL cells using Dabcyl-KTSAVLQSGFRKME-Edans fluorogenic peptide as substrate measured up to 60 mins by FRET method. Details: species or system Severe acute respiratory syndrome-related coronavirus.
Assay [3] is described as follows: Inhibition of His-tagged SARS-CoV 3c-like protease using Abz-SVTLQSG-Tyr(NO2)R as substrate by fluorometric assay. Details: species or system Severe acute respiratory syndrome-related coronavirus.
Assay [4] in a line: Inhibition of SARS-CoV 3C-like protease (3241 to 3546 residues) expressed in Pichia pastoris GS115 using Dabcyl-KTSAVLQSGFRKME-Edans fluorogenic peptide as substrate measured for 18 mins by fluorescence method. Details: species or system Severe acute respiratory syndrome-related coronavirus.
Assay [5] is described as follows: Inhibition of SARS-CoV 3C-like protease (3241 to 3546 residues) expressed in Pichia pastoris GS115 using Dabcyl-KTSAVLQSGFRKME-Edans fluorogenic peptide as substrate measured for 18 mins by Lineweaver-burk plot based Dixon plot analysis. More on the design: species or system Severe acute respiratory syndrome-related coronavirus.
A short description of assay [6]: Inhibition of SARS-CoV-2 3c-like protease expressed in Escherichia coli by FRET-based cleavage assay. More on the design: species or system Severe acute respiratory syndrome coronavirus 2.

With `Oc1cc(O)cc(Oc2c(O)cc(O)c3c2Oc2c(O)cc(Oc4c(O)cc(Oc5c(O)cc(O)c6c5Oc5c(O)cc(O)cc5O6)cc4O)cc2O3)c1` [DIECKOL], in assay [1], it took 2.7 µM to reach half-maximal inhibition (IC50). Molecule `Oc1cc(O)c(Oc2cc(O)cc(O)c2Oc2cc(-c3c(O)cc(O)cc3O)c(O)cc2O)c(O)c1` yielded an IC50 in assay [1] of 22.5 µM. `COc1ccc(C(=O)/C=C/c2ccc(O)cc2)c(O)c1C/C=C(\C)CCC=C(C)C` [XANTHOANGELOL F]: the IC50 in assay [2] stood at 34.1 µM. Consider `Oc1cc(O)cc(Oc2c(O)cc(O)c3c2Oc2c(O)cc(O)cc2O3)c1` [ECKOL], for which the IC50 in assay [1] amounted to 8.8 µM. As to `CC(=O)N[C@H](C(=O)N[C@H](C(=O)N[C@@H](CC(C)C)C(=O)N[C@@H](C[C@@H]1CCNC1=O)C(=O)Cn1[nH]c(=O)c2ccccc2c1=O)[C@@H](C)OCc1ccccc1)C(C)C`, the half-inhibitory concentration (IC50) in assay [3] turned out to be 2.7 µM. Consider `Oc1cc(O)cc(Oc2c(Oc3c(O)cc(O)cc3O)cc(O)c3c2Oc2c(O)cc(O)cc2O3)c1` [2-PHLOROECKOL], for which the IC50 in assay [1] came out at 13.3 µM. Take `O=C(O[C@@H]1Cc2c(O)cc(O)cc2O[C@@H]1c1cc(O)c(O)c(O)c1)c1cc(O)c(O)c(O)c1` [EPIGALOCATECHIN GALLATE]: in assay [4], half-maximal inhibition (IC50) required 73 µM. In the case of `CCC(Cc1c(OC)ccc(C(=O)/C=C/c2ccc(O)cc2)c1O)OO` (stereo unspecified), in assay [2], 11.4 µM corresponded to half-maximal inhibition (IC50). In assay [4], `O=C(O[C@@H]1Cc2c(O)cc(O)cc2O[C@H]1c1cc(O)c(O)c(O)c1)c1cc(O)c(O)c(O)c1` [GALLOCATECHIN GALLATE] gave a half-inhibitory concentration (IC50) of 47 µM. Besides, the inhibitory constant (Ki) in assay [5] was 25 µM. In assay [1], `Oc1cc(O)cc(Oc2c(O)cc(O)c3c2Oc2c(O)cc(Oc4c(O)cc(O)cc4O)cc2O3)c1` gave an IC50 of 42.1 µM. Still for that read-out and setting: the result for `Oc1cc(O)cc(Oc2c(O)cc(O)c3c2Oc2c(O)cc4oc5c(Oc6cc(O)cc(O)c6)c(O)cc(O)c5c4c2O3)c1` [PHLOROFUCOFUROECKOL A] reads 16.7 µM. In assay [3], `CC(=O)N[C@H](C(=O)N[C@H](C(=O)N[C@@H](CC(C)C)C(=O)N[C@@H](C[C@@H]1CCNC1=O)C(=O)Cn1[nH]c(=O)c2c([N+](=O)[O-])cccc2c1=O)[C@@H](C)OCc1ccccc1)C(C)C` gave an IC50 of 0.6 µM. For `O=C[C@H](C[C@@H]1CCNC1=O)NC(=O)[C@H](Cc1cccc(F)c1)NC(=O)c1cc2ccccc2[nH]1`, the 50% inhibitory concentration (IC50) in assay [6] came out at 0.04 µM.

`O=c1c(O)c(-c2ccc(O)c(O)c2)oc2cc(O)cc(O)c12` [QUERCETIN] had a half-maximal inhibitory concentration (IC50) in assay [4] of 73 µM. The molecule `C/C(=C\Cc1c(O)ccc(C(=O)/C=C/c2ccc(O)cc2)c1O)CCC(O)C(C)C` (stereo unspecified) came in with an IC50 in assay [2] of 22.2 µM.

As usually defined, the IC50 is the concentration that inhibits the measured activity by half. High values mean weaker potency in that assay, low ones greater potency in that assay. Usually Ki stands for a dissociation constant, usually derived from enzyme kinetics or from competition with a known ligand. Low readings indicate tighter binding, high ones weaker binding.
